Consider five compounds from article doi:10.1101/2022.08.09.502705v1 (biorxiv, 2022).

A word on the IC50: it is the concentration that inhibits the measured activity by half. Higher therefore signals weaker potency. A word on the EC50: it is the concentration giving half of the maximal effect. Read a high EC50 as a need for much substance. Broadly, the Kd is the free concentration of one partner at which half of the binding sites on the other are occupied at equilibrium, for simple one-to-one binding. A high value points to weaker binding.

The target of one test is hSERT (Homo sapiens, UniProt P31645, K490T). The test can be described thus: cell-based.
Chain of hSERT (P31645 whole entry K490T): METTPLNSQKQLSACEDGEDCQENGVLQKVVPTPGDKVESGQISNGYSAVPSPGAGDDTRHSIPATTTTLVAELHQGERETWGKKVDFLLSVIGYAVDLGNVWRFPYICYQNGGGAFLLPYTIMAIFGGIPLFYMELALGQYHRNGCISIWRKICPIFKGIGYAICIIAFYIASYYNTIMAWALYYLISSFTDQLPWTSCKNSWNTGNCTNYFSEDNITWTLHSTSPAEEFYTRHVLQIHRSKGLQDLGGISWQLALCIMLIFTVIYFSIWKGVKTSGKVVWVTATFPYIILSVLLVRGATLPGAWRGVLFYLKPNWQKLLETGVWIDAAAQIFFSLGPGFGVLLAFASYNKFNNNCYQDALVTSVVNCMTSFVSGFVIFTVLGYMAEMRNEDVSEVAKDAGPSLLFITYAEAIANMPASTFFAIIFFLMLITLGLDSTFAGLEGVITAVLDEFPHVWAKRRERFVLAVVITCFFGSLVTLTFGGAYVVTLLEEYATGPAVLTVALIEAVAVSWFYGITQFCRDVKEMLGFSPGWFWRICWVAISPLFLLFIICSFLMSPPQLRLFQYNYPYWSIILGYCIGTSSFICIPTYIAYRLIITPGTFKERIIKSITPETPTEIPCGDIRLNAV
In test [1] the test system is iFluoxSnFR. Briefly: fluorescence concentration-response of purified biosensor. The settings on record: purified protein. Format: binding.
Test [2] addresses iFluoxSnFR. The test can be described thus: isothermal titration calorimetry. Format: binding. Particulars: 3x PBS pH […] °C.
For test [3], the system named is iEscSnFR. Briefly: fluorescence concentration-response of purified biosensor. The settings on record: purified protein. Format: binding.
The target in test [4] is iEscSnFR. The test can be described thus: isothermal titration calorimetry. The format is binding. Particulars: 3x PBS pH […] °C. On the technique in general: In ITC the heat of successive injections is recorded.

On hSERT, `C[N+](C)(C)CCC(Oc1ccc(C(F)(F)F)cc1)c1ccccc1` (racemic) [N-N-dimethylfluoxetine] had a concentration for half-maximal inhibition (IC50) of 0.6 ± 0.2 µM. Also, the response in the test with iFluoxSnFR [1] was half-maximal at 14 ± 0.4 µM (EC50). For the same compound, the dissociation constant Kd at iFluoxSnFR [2] came out at 28.1 ± 3.7 µM.

Take `C[N+](C)(C)CCC[C@@]1(c2ccc(F)cc2)OCc2cc(C#N)ccc21` [N-methylescitalopram]: a half-maximal response in the test with iEscSnFR [3] (EC50) required 1.8 ± 0.2 µM.

With `C[N+](C)(C)CCO` [choline], the EC50 in the test on iEscSnFR [3] was found to be 140 ± 20 µM.

`CN(C)CCC[C@@]1(c2ccc(F)cc2)OCc2cc(C#N)ccc21` [escitalopram] gave a concentration giving a half-maximal response (EC50) in the test with iEscSnFR [3] of 4.5 ± 0.2 µM. The Kd at iEscSnFR [4] turned out to be 3.4 ± 0.1 µM.

For `NCCC(Oc1ccc(C(F)(F)F)cc1)c1ccccc1` (centres unmarked) [norfluoxetine], the 50% effective concentration (EC50) in the test with iFluoxSnFR [1] came out at 63 ± 20 µM.
